# ChEMBL document CHEMBL3885861, “Open TG-GATES”
# Species on record: Rattus norvegicus
# Assay: Open TG-GATES - Regimen: Single
# Assay type: toxicity, organism-based, Sprague-Dawley
# Parameters: regimen Single, gender Male, age 6 weeks
# Details: in vivo, po, 30 mg/kg, route gavage, dose level Low; for APTT / Bas / Eos / Fbg / Hb / Ht / Lym / MCH / MCHC / MCV / Mono / Neu / PT / Plat / RBC / Ret / WBC: tissue Blood; for KIDNEY_L / KIDNEY_R / KIDNEY_TOTAL: tissue Kidney; for LIVER: tissue Liver; for A/G / ALP / ALT / AST / BUN / CRE / Ca / Cl / DBIL / GLC / IP / K / LDH / Na / PL / RALB / TBIL / TC / TG / TP / gamma-GTP: tissue Plasma
smiles,measurement,setting,value
NC(=O)N/N=C/c1ccc([N+](=O)[O-])o1 [NITROFURAZONE],TERMINAL_BW,3 h,181.5 g
same,APTT,3 h,16.4 s
same,Bas,3 h,0.2%
same,Eos,3 h,0.8%
same,Fbg,3 h,262.8 mg/dL
same,Hb,3 h,13 g/dL
same,Ht,3 h,40.6%
same,Lym,3 h,68.6%
same,MCH,3 h,21.7 pg
same,MCHC,3 h,31.9%
same,MCV,3 h,67.8 fL
same,Mono,3 h,3.6%
same,Neu,3 h,26%
same,PT,3 h,14.8 s
same,Plat,3 h,116.3 x10_4/uL
same,RBC,3 h,598.8 x10_4/ul
same,Ret,3 h,10.6%
same,WBC,3 h,92.5 x10_2/uL
same,KIDNEY_L,3 h,0.8 g
same,KIDNEY_R,3 h,0.8 g
same,KIDNEY_TOTAL,3 h,1.6 g
same,LIVER,3 h,8.1 g
same,A/G,3 h,0.9
same,ALP,3 h,1547.4 IU/L
same,ALT,3 h,43 IU/L
same,AST,3 h,76.8 IU/L
same,BUN,3 h,10.8 mg/dL
same,CRE,3 h,0.2 mg/dL
same,Ca,3 h,11.3 mg/dL
same,Cl,3 h,106.4 meq/L
same,DBIL,3 h,0.01 mg/dL
same,GLC,3 h,175 mg/dL
same,IP,3 h,9.7 mg/dL
same,K,3 h,4 meq/L
same,LDH,3 h,47.2 IU/L
same,Na,3 h,142.8 meq/L
same,PL,3 h,145.4 mg/dL
same,RALB,3 h,2.4 g/dL
same,TBIL,3 h,0.054 mg/dL
same,TC,3 h,81 mg/dL
same,TG,3 h,48 mg/dL
same,TP,3 h,5.2 g/dL
same,gamma-GTP,3 h,1.6 IU/L
same,TERMINAL_BW,6 h,178.8 g
same,APTT,6 h,16 s
same,Bas,6 h,0%
same,Eos,6 h,0.8%
same,Fbg,6 h,253.2 mg/dL
same,Hb,6 h,12.8 g/dL
same,Ht,6 h,39.9%
same,Lym,6 h,71%
same,MCH,6 h,21.3 pg
same,MCHC,6 h,32.1%
same,MCV,6 h,66.5 fL
same,Mono,6 h,2.8%
same,Neu,6 h,24%
same,PT,6 h,14.6 s
same,Plat,6 h,116.1 x10_4/uL
same,RBC,6 h,599.8 x10_4/ul
same,Ret,6 h,10.6%
same,WBC,6 h,83.2 x10_2/uL
same,KIDNEY_L,6 h,0.8 g
same,KIDNEY_R,6 h,0.8 g
same,KIDNEY_TOTAL,6 h,1.6 g
same,LIVER,6 h,7.6 g
same,A/G,6 h,0.9
same,ALP,6 h,1430.2 IU/L
same,ALT,6 h,43.6 IU/L
same,AST,6 h,76.8 IU/L
same,BUN,6 h,7.8 mg/dL
same,CRE,6 h,0.2 mg/dL
same,Ca,6 h,11 mg/dL
same,Cl,6 h,105 meq/L
same,DBIL,6 h,0.01 mg/dL
same,GLC,6 h,167.4 mg/dL
same,IP,6 h,10.3 mg/dL
same,K,6 h,4 meq/L
same,LDH,6 h,52.6 IU/L
same,Na,6 h,141 meq/L
same,PL,6 h,139 mg/dL
same,RALB,6 h,2.4 g/dL
same,TBIL,6 h,0.062 mg/dL
same,TC,6 h,83.6 mg/dL
same,TG,6 h,33.2 mg/dL
same,TP,6 h,5.1 g/dL
same,gamma-GTP,6 h,1.6 IU/L
same,TERMINAL_BW,9 h,179 g
same,APTT,9 h,16 s
same,Bas,9 h,0%
same,Eos,9 h,1%
same,Fbg,9 h,264.6 mg/dL
same,Hb,9 h,12.7 g/dL
same,Ht,9 h,39.3%
same,Lym,9 h,76.6%
same,MCH,9 h,21.1 pg
same,MCHC,9 h,32.4%
same,MCV,9 h,65.3 fL
same,Mono,9 h,2.8%
same,Neu,9 h,19%
same,PT,9 h,14.9 s
same,Plat,9 h,105.2 x10_4/uL
same,RBC,9 h,601.4 x10_4/ul
same,Ret,9 h,10.5%
same,WBC,9 h,60.9 x10_2/uL
same,KIDNEY_L,9 h,0.8 g
same,KIDNEY_R,9 h,0.8 g
same,KIDNEY_TOTAL,9 h,1.7 g
same,LIVER,9 h,7.2 g
same,A/G,9 h,0.9
same,ALP,9 h,1367.6 IU/L
same,ALT,9 h,42.8 IU/L
same,AST,9 h,76 IU/L
same,BUN,9 h,7.4 mg/dL
same,CRE,9 h,0.1 mg/dL
same,Ca,9 h,10.8 mg/dL
same,Cl,9 h,105.6 meq/L
same,DBIL,9 h,0.016 mg/dL
same,GLC,9 h,163.6 mg/dL
same,IP,9 h,10.3 mg/dL
same,K,9 h,3.7 meq/L
same,LDH,9 h,48.8 IU/L
same,Na,9 h,141.4 meq/L
same,PL,9 h,133.2 mg/dL
same,RALB,9 h,2.4 g/dL
same,TBIL,9 h,0.064 mg/dL
same,TC,9 h,72.4 mg/dL
same,TG,9 h,40.4 mg/dL
same,TP,9 h,5.2 g/dL
same,gamma-GTP,9 h,1.2 IU/L
same,TERMINAL_BW,24 h,197.2 g
same,APTT,24 h,15.8 s
same,Bas,24 h,0.2%
same,Eos,24 h,0.8%
same,Fbg,24 h,260 mg/dL
same,Hb,24 h,12.3 g/dL
same,Ht,24 h,38%
same,Lym,24 h,79%
same,MCH,24 h,21.5 pg
same,MCHC,24 h,32.3%
same,MCV,24 h,66.5 fL
same,Mono,24 h,3.6%
same,Neu,24 h,16%
same,PT,24 h,14.8 s
same,Plat,24 h,112 x10_4/uL
same,RBC,24 h,571.2 x10_4/ul
same,Ret,24 h,10.6%
same,WBC,24 h,87.3 x10_2/uL
same,KIDNEY_L,24 h,0.9 g
same,KIDNEY_R,24 h,0.9 g
same,KIDNEY_TOTAL,24 h,1.8 g
same,LIVER,24 h,9.3 g
same,A/G,24 h,0.9
same,ALP,24 h,1764.6 IU/L
same,ALT,24 h,50.2 IU/L
same,AST,24 h,75.2 IU/L
same,BUN,24 h,14.6 mg/dL
same,CRE,24 h,0.2 mg/dL
same,Ca,24 h,11.4 mg/dL
same,Cl,24 h,104.6 meq/L
same,DBIL,24 h,0.014 mg/dL
same,GLC,24 h,179.2 mg/dL
same,IP,24 h,9.1 mg/dL
same,K,24 h,4 meq/L
same,LDH,24 h,64.2 IU/L
same,Na,24 h,142 meq/L
same,PL,24 h,145.6 mg/dL
same,RALB,24 h,2.5 g/dL
same,TBIL,24 h,0.048 mg/dL
same,TC,24 h,80.2 mg/dL
same,TG,24 h,62.6 mg/dL
same,TP,24 h,5.4 g/dL
same,gamma-GTP,24 h,1 IU/L
